Data published in article PMC12068008 (International Journal of Molecular Sciences, 2024).

Key:
[1] = target: eeAChE (Electrophorus electricus, UniProt O42275); assay: biochemical; conditions: at 1 × 10^−4 M, 37 °C; for inhibition at 100 µM: read-out: Percentage Inhibition AChE
Method: The abilities of compounds to inhibit AChE and BuChE activity were determined following Ellman’s procedure, with AChI and BuChI as the enzyme substrate, respectively, and DTNB as a chromogenic reagent. AChE’s and BuChE’s working solutions were prepared at 20 mM TRIS and deionized water, respectively. AChI and BuChI solutions were prepared in deionized water. […] Stock solutions (10 mM) of investigated compounds were prepared daily by dissolving solid compounds in DMSO. The reaction mixture containing phosphate buffer, DTNB, enzyme, and compound was preincubated 30 min at 37 °C. After the preincubation time, the enzyme reaction was initiated by adding appropriate substrate and left to incubate for 6 min. After incubation, 0.1 M SDS was added to stop the reaction. […] A blank assay, containing all components except the enzyme, was used to account for non-enzyme reactions. The control solution contained all components except the inhibitor. All experiments were conducted in triplicate, and the results are expressed as the mean percentage enzyme activity compared to the control value. IC50 values were determined graphically using Origin 9 Microsoft Windows.

[2] = physchem; assay type: physicochemical; conditions: n-octanol/deionized water, shake flask, 25 °C, 1 × 10^−4 M, read-out: logP, experimentally obtained
Method: To measure the lipophilicity (expressed as the partition coefficient) of the synthesized compounds and their constituents, using a “shake-flask” method, a two-phase system composed of n-octanol and deionized water was used. The stock solutions of the compounds were diluted with water to the concentration of 1 × 10^−4 M, and this solution was used for further investigation. […] The concentration of the compounds was calculated from their extinction coefficient at 260 nm that was previously determined.

[3] = system: MDA-MB-231 cells; assay: SRB assay, MDA-MB-231 cells; assay type: cell-based; conditions: for IC50: Homo sapiens, MDA-MB-231, 72 h after treatment, SRB, read-out: IC50 MDA-231
Method: (§1) All cell lines were cultured in Dulbecco’s Modified Eagle’s Medium (DMEM) with 4500 mg/L glucose and L-glutamine (Capricorn Scientific, Ebsdorfergrund, Germany), supplemented with 10% foetal bovine serum (PAN-Biotech, Aidenbach, Germany), 10,000 U/mL penicillin, and 10 mg/mL streptomycin solution (Capricorn Scientific) under standard conditions at 37 °C in a humidified 5% CO2 atmosphere (ESCO, Lifesciences Group, Singapore).
Cells were seeded on a 96-well plate (Thermo Fisher Scientific, Waltham, MA, USA) at 2 × 10^3 cells per well in DMEM medium. For the analysis of the concentration- and time-dependent effect of the analysed compounds, cell monolayers were treated 24 h after seeding with concentrations 1 × 10^−6, 1 × 10^−5, and 1 × 10^−4 M for 24, 48, or 72 h. Cell viability was detected using sulforhodamine B (SRB) assay, based on the staining of cellular proteins. The assay was performed according to the procedure described by Skehan et al.. The cells were fixed with 10% trichloroacetic acid (TCA, CARLO ERBA Reagents GmbH, Emmendingen, Germany) for 1 h at 4 °C, washed with water, and stained for 15 min with 0.4% SRB (Sigma-Aldrich Chemie GmbH, Steinheim, Germany) in 1% acetic acid. The unbound SRB dye was rinsed with 1% acetic acid, while the protein-bound dye was extracted with a 10 mM Tris base (Sigma-Aldrich). […] The results were expressed as a percentage of the control, where the cell growth of the control is set to 100%. […] The selectivity index (SI) was determined according to the following formula:(2) SI=IC50 for fibroblast cell line/IC50 for tumour cell line
(§2) The assay was performed two times in 4 replicates for every experimental group. The statistical significance of differences between treated and untreated cells was estimated by the independent Student’s t-test, with the level of significance set at p < 0.05.

[4] = system: MRC-5 cells; assay: SRB assay, MRC-5 cells; assay type: cell-based; conditions: Homo sapiens, MRC5; 72 h after treatment, SRB; read-out: IC50 MRC
Method: as §1, with “Two human breast cancer cell lines, MDA-MB-231 (HTB-26) and MDA-MB-468 (HTB-132), human cervical cancer cell line HeLa (CCL-2), and MRC-5 (CCL-171) fibroblasts were purchased from the American Type Culture Collection (ATCC, Manassas, VA, USA). All” for “All”
Cells were seeded on a 96-well plate (Thermo Fisher Scientific, Waltham, MA, USA) at 2 × 10^3 cells per well in DMEM medium. For the analysis of the concentration- and time-dependent effect of the analysed compounds, cell monolayers were treated 24 h after seeding with concentrations 1 × 10^−6, 1 × 10^−5, and 1 × 10^−4 M for 24, 48, or 72 h. Cell viability was detected using sulforhodamine B (SRB) assay, based on the staining of cellular proteins. The assay was performed according to the procedure described by Skehan et al.. The cells were fixed with 10% trichloroacetic acid (TCA, CARLO ERBA Reagents GmbH, Emmendingen, Germany) for 1 h at 4 °C, washed with water, and stained for 15 min with 0.4% SRB (Sigma-Aldrich Chemie GmbH, Steinheim, Germany) in 1% acetic acid. The unbound SRB dye was rinsed with 1% acetic acid, while the protein-bound dye was extracted with a 10 mM Tris base (Sigma-Aldrich). The absorbance was measured at 550 nm with a reference wavelength of 690 nm in a microplate reader (Wallac, VICTOR2 1420 Multilabel counter, PerkinElmer, Turku, Finland). The results were expressed as a percentage of the control, where the cell growth of the control is set to 100%. […] The selectivity index (SI) was determined according to the following formula:(2) SI=IC50 for fibroblast cell line/IC50 for tumour cell line […]

[5] = system: MDA-MB-468 cells; assay: SRB assay, MDA-MB-468 cells; assay type: cell-based, human; conditions: for IC50: Homo sapiens, MDA-MB-468, 72 h after treatment, SRB, read-out: IC50 MDA-468
Method: as §1, with “Two human breast cancer cell lines, MDA-MB-231 (HTB-26) and MDA-MB-468 (HTB-132), human cervical cancer cell line HeLa (CCL-2), and MRC-5 (CCL-171) fibroblasts were purchased from the American Type Culture Collection (ATCC, Manassas, VA, USA). All” for “All”
Cells were seeded on a 96-well plate (Thermo Fisher Scientific, Waltham, MA, USA) at 2 × 10^3 cells per well in DMEM medium. For the analysis of the concentration- and time-dependent effect of the analysed compounds, cell monolayers were treated 24 h after seeding with concentrations 1 × 10^−6, 1 × 10^−5, and 1 × 10^−4 M for 24, 48, or 72 h. Cell viability was detected using sulforhodamine B (SRB) assay, based on the staining of cellular proteins. The assay was performed according to the procedure described by Skehan et al.. The cells were fixed with 10% trichloroacetic acid (TCA, CARLO ERBA Reagents GmbH, Emmendingen, Germany) for 1 h at 4 °C, washed with water, and stained for 15 min with 0.4% SRB (Sigma-Aldrich Chemie GmbH, Steinheim, Germany) in 1% acetic acid. The unbound SRB dye was rinsed with 1% acetic acid, while the protein-bound dye was extracted with a 10 mM Tris base (Sigma-Aldrich). The absorbance was measured at 550 nm with a reference wavelength of 690 nm in a microplate reader (Wallac, VICTOR2 1420 Multilabel counter, PerkinElmer, Turku, Finland). The results were expressed as a percentage of the control, where the cell growth of the control is set to 100%. IC50, defined as the concentration that caused a 50% loss of cell growth, was calculated by non-linear regression analysis with the ED50plus v1.0 software. The selectivity index (SI) was determined according to the following formula:(2) SI=IC50 for fibroblast cell line/IC50 for tumour cell line
as §2

Sequence of eeAChE (O42275 24-633): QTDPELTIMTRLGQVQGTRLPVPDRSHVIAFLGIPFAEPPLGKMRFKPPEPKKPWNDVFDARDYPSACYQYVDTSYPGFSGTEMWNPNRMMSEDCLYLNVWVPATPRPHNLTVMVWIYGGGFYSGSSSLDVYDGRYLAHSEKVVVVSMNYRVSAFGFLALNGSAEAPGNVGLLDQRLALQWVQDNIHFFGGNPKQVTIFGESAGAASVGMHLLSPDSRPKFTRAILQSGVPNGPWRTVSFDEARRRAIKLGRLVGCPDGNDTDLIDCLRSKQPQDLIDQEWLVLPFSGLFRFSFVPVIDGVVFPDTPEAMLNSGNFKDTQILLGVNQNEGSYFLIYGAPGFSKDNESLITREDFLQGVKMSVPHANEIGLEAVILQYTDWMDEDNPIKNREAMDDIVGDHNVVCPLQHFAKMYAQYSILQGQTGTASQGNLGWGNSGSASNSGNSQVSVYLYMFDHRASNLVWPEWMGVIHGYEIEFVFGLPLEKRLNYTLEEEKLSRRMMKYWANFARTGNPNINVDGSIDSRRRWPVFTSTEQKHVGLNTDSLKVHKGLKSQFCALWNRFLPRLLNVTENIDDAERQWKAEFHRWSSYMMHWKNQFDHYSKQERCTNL

Row | SMILES | Percentage Inhibition AChE [1] | inhibition at 100 µM [1] | logP at 30 min [2] | IC50 [3] | IC50 [4] | IC50 [5] | highest inhibition of MDA-468 cells ([5]; highest concentration, 72 h) | Viability of MDA-231 cells ([3]; 72 h)
1 | COc1cc2c(cc1OC)CN(Cc1c(O)cc(O)c3c(=O)c(O)c(-c4ccc(O)c(O)c4)oc13)CC2 [Compound 2b] | 15.4% | 15% | 2.47 | 106 ± 5 µM | 16.6 ± 0.83 µM | 109 ± 5 µM | 56.56% | 
2 | O=c1c(O)c(-c2ccc(O)c(O)c2)oc2c(CN3CCc4ccccc4C3)c(O)cc(O)c12 [Compound 2a] |  | 33.3% | 3.07 | 146 ± 7 µM | 55.7 ± 2.78 µM | > 200 µM |  | recovered to the control level or even increased
